pIC50: −log10 of the molar value. The source made the active and inactive calls. No cut-off for these calls is given here.
Columns and labels:
[1] = target: T1, Hexokinase-2 (Mus musculus) (UniProt O08528); assay: Induction of HK2 degradation in mouse 4T1 cells at 20 uM measured upto 18 hrs by Western blot analysis; format: cell-based
T1 sequence (whole entry): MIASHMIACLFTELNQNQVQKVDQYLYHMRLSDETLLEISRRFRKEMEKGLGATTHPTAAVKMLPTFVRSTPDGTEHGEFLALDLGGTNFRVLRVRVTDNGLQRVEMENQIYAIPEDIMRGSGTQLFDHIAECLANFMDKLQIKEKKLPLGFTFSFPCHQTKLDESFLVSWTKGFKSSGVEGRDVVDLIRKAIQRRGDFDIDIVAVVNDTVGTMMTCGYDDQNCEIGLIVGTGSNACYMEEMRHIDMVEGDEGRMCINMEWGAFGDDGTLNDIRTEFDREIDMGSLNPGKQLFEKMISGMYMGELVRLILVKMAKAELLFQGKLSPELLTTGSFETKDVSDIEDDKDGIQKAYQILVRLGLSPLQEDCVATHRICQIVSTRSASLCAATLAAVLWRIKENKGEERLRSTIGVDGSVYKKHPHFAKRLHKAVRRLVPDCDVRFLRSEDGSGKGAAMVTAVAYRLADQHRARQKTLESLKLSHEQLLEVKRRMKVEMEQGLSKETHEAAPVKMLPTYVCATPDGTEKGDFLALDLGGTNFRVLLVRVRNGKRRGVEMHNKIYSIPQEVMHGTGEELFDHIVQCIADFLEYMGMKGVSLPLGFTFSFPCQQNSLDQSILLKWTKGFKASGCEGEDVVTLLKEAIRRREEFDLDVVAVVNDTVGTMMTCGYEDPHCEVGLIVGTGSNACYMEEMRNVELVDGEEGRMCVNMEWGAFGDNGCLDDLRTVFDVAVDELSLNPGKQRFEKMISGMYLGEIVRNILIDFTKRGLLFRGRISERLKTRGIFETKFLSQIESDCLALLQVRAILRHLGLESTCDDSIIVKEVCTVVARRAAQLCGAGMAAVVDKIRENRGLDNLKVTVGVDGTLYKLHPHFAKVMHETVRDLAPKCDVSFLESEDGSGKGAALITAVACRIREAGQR

MDA-MB-231 [2] = assay: Induction of pyroptosis in human MDA-MB-231 cells assessed as increase in N-terminal GSDME level at 20 uM incubated for 36 hrs by Western blot analysis; format: functional, cell-based
4T1 [3] = assay: Antitumor immunity against mouse 4T1 cells implanted in BALB/c mouse model assessed as increase in LDH release in cell supernatant at 20 uM measured for 36 hrs by ELISA analysis; format: functional, cell-based
[4] = Toxicity in BALB/c mouse implanted with mouse 4T1 cells assessed as pathological changes in heart at 50 mg/kg, ip measured after 25 days in presence of cisplatin by Hematoxylin -eosin staining based analysis; format: organism-based; settings: in vivo, 600 h, time 25 day
[5] = Toxicity in BALB/c mouse implanted with mouse 4T1 cells assessed as effect on mean corpuscular hemoglobin at 50 mg/kg, ip measured after 25 days by routine blood test; format: organism-based; settings: in vivo, 600 h, time 25 day
HGC-27 = assay: Potency index, ratio of IC50 for lonidamine to test compound IC50 for human HGC-27 cells assessed as cell growth inhibition measured for 72 hrs by MTT assay; format: functional
[6] = Toxicity in BALB/c mouse implanted with mouse 4T1 cells assessed as change in body weight at 50 mg/kg, ip measured after 23 days in presence of cisplatin; format: organism-based; settings: in vivo, 552 h, time 23 day
MDA-MB-231 [7] = assay: Antitumor activity against human MDA-MB-231 cells xenografted in BALB/c nude mouse assessed as increase in cleaved caspase-3 level at 50 mg/kg, ip measured after 28 days; format: functional, organism-based; settings: time 28.0 day
4T1 [8] = assay: Induction of mitochondrial damage in mouse 4T1 cells at 20 uM measured for 36 hrs by Hoechst 33342 staining based confocal fluorescence microscopic analysis; format: functional, cell-based
4T1 [9] = assay: Antitumor activity against mouse 4T1 cells implanted in BALB/c mouse assessed as reduction in HK2 proetin level […] at 50 mg/kg, ip measured after 25 days in presence of cisplatin by Western blot analysis; format: functional, organism-based; settings: time 25.0 day
[10] = Toxicity in BALB/c mouse implanted with mouse 4T1 cells assessed as pathological changes in spleen at 50 mg/kg, ip measured after 25 days by Hematoxylin -eosin staining based analysis; format: organism-based; settings: in vivo, 600 h, time 25 day
MDA-MB-231 [11] = assay: Induction of pyroptosis in human MDA-MB-231 cells assessed as increase in cleaved caspase-3 level level at 20 uM incubated for 36 hrs by Western blot analysis; format: functional, cell-based
[12] = Toxicity in BALB/c mouse implanted with mouse 4T1 cells assessed as effect on mean corpuscular hemoglobin at 50 mg/kg, ip measured after 25 days in presence of cisplatin by routine blood test; format: organism-based; settings: in vivo, 600 h, time 25 day
4T1 [13] = assay: Induction of pyroptosis in mouse 4T1 cells assessed as late apoptotic cells at 20 uM incubated for 36 hrs by annexin V-FITC staining based flow cytometry analysis (Rvb =13.6 %); format: functional
[14] = target: Protein cereblon/Hexokinase-2 (Mus musculus) (UniProt O08528+Q8C7D2); assay: PROTAC activity at CRBN/HK2 in mouse 4T1 cells assessed as HK2 degradation at 20 uM incubated for 36 hrs; format: cell-based
[15] = Toxicity in BALB/c mouse implanted with mouse 4T1 cells assessed as effect on corpuscular volume at 50 mg/kg, ip measured after 25 days by routine blood test; format: organism-based; settings: in vivo, 600 h, time 25 day
[16] = target: Protein cereblon/Hexokinase-2 (Homo sapiens) (UniProt P52789+Q96SW2); assay: PROTAC activity at CRBN/HK2 in human MDA-MB-231 cells assessed as […] ternary complex formation at 10 uM incubated for 24 hrs in presence of MG132; format: cell-based
4T1 [17] = assay: Antitumor immunity against mouse 4T1 cells implanted in BALB/c mouse model assessed as upregulation of IFN-gamma expression in mouse tumor by ELISA analysis; format: functional, cell-based
4T1 [18] = assay: Antitumor immunity against mouse 4T1 cells implanted in BALB/c mouse model assessed as upregulation of Il-1beta expression in mouse tumor by ELISA analysis; format: functional, cell-based
4T1 [19] = assay: Antiproliferative activity against mouse 4T1 cells assessed as cell growth inhibition measured for 72 hrs by MTT assay; format: functional, cell-based; settings: 4T1, 72 h
[20] = Toxicity in BALB/c nude mouse xenografted with human MDA-MB-231 cells assessed as effect on mean corpuscular hemoglobin at 50 mg/kg, ip measured after 30 days by routine blood test; format: organism-based; settings: in vivo, 720 h, time 30 day
MDA-MB-231 [21] = assay: Cytotoxicity against human MDA-MB-231 cells assessed as inhibition of cell growth at 1 to 100 uM incubated for 48 hrs by CCK-8 assay; format: functional, cell-based; settings: dose 1-100 µM
4T1 [22] = assay: Antitumor activity against mouse 4T1 cells implanted in BALB/c mouse model assessed as reduction tumor cell proliferation at 50 mg/kg, ip measured after 25 days by H and E staining based analysis; format: functional, organism-based; settings: time 25.0 day
[23] = Toxicity in BALB/c nude mouse xenografted with human MDA-MB-231 cells assessed as effect on mean corpuscular volume at 50 mg/kg, ip measured after 30 days by routine blood test; format: organism-based; settings: in vivo, 720 h, time 30 day
4T1 [24] = assay: Potency index, ratio of IC50 for lonidamine to test compound IC50 for mouse 4T1 cells assessed as cell growth inhibition measured for 72 hrs by MTT assay; format: functional

Protein cereblon/Hexokinase-2 (Mus musculus), sequence (Q8C7D2 whole entry, looked up, one chain of several): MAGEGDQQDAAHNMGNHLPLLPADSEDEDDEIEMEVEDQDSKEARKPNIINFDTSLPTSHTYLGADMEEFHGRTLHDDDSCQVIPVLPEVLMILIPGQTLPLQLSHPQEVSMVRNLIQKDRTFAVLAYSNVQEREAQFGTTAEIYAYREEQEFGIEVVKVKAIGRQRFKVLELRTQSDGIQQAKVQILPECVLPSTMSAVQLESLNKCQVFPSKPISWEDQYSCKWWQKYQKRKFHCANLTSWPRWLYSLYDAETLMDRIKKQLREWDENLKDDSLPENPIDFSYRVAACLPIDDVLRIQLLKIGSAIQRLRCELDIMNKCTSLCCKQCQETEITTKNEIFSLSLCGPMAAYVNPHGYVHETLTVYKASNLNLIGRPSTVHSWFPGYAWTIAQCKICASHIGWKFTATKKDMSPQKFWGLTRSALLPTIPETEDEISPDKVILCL
Protein cereblon/Hexokinase-2 (Homo sapiens), sequence (P52789 whole entry, looked up): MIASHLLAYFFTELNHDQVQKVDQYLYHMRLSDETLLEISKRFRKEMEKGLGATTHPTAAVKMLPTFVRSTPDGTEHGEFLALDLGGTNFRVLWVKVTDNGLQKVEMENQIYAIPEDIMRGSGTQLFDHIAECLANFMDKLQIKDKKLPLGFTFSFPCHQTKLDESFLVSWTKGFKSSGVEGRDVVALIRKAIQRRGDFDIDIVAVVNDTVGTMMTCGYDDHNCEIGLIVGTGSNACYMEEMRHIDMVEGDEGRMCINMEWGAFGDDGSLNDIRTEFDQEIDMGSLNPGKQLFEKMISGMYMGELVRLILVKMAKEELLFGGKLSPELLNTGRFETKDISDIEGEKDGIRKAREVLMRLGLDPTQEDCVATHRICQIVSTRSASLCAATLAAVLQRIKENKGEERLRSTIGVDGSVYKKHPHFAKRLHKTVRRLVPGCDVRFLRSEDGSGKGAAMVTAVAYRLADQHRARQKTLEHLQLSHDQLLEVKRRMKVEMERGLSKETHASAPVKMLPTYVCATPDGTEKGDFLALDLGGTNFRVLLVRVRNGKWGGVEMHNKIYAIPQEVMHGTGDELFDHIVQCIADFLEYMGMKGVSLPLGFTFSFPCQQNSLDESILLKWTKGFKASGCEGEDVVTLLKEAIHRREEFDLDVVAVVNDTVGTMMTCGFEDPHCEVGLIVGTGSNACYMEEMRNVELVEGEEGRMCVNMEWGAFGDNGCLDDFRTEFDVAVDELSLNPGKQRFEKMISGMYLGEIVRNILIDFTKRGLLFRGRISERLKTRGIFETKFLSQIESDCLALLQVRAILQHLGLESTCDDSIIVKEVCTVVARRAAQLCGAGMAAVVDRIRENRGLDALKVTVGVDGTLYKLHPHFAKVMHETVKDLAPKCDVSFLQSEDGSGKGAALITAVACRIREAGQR
Protein cereblon/Hexokinase-2 (Homo sapiens), sequence (Q96SW2 whole entry, looked up): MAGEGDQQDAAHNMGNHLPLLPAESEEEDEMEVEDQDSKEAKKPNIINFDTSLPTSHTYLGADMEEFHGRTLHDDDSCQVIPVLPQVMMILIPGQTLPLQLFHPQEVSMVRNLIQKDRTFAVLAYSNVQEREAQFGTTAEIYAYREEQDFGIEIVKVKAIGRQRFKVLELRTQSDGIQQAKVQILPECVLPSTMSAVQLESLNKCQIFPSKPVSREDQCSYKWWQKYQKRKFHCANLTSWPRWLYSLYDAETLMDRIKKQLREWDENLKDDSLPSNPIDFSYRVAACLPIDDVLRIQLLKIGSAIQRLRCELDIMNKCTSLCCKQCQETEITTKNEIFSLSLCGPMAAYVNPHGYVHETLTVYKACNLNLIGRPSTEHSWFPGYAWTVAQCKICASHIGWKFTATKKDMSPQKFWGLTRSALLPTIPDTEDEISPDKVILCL

SMILES: O=C1CCC(N2C(=O)c3cccc(NCCCCNC(=O)c4nn(Cc5ccc(Cl)cc5Cl)c5ccccc45)c3C2=O)C(=O)N1 (stereo not given)
- Activity [1]: Active
- Activity (MDA-MB-231 [2]): Active
- Activity (4T1 [3]): Active
- Activity [4]: Non-Toxic
- Activity [5]: Non-Toxic
- Ratio IC50 (HGC-27): 12.7
- Activity [6]: Non-Toxic
- Activity (MDA-MB-231 [7]): Active
- Activity (4T1 [8]): Active
- Activity (4T1 [9]): Active
- Activity [10]: Non-Toxic
- Activity (MDA-MB-231 [11]): Active
- Activity [12]: Non-Toxic
- Activity (4T1 [13]): 43%
- Activity [14]: Active
- Activity [15]: Non-Toxic
- Activity [16]: inactive
- Activity (4T1 [17]): Active
- Activity (4T1 [18]): Active
- pIC50 (4T1 [19]): 5.29
- Activity [20]: Non-Toxic
- Activity (MDA-MB-231 [21]): Active
- Activity (4T1 [22]): Active
- Activity [23]: Non-Toxic
- Ratio IC50 (4T1 [24]): 30.1

Source: ChEMBL document CHEMBL5331124, “Degradation of Hexokinase 2 Blocks Glycolysis and Induces GSDME-Dependent Pyroptosis to Amplify Immunogenic Cell Death for Breast Cancer Therapy” (J Med Chem, 2023)
